Experimental data reported in ChEMBL document CHEMBL4152299, “Synthesis, crystal structure and antimicrobial potential of some fluorinated chalcone-1,2,3-triazole conjugates” (2018).
≈ marks a conversion by molar mass, not a printed value.

Legend:
Format in all cases: functional
Escherichia coli = test: Antibacterial activity against Escherichia coli MTCC 16521 after 24 hrs by serial dilution method; conditions: MTCC 16521, 24 h
Bacillus subtilis = test: Antibacterial activity against Bacillus subtilis MTCC 441 after 24 hrs by serial dilution method; conditions: MTCC 441, 24 h
[1] = test system: Staphylococcus epidermidis; test: Antibacterial activity against Staphylococcus epidermidis MTCC 6880 after 24 hrs by serial dilution method; conditions: MTCC 6880, 24 h
Pseudomonas aeruginosa = test: Antibacterial activity against Pseudomonas aeruginosa MTCC 424 after 24 hrs by serial dilution method; conditions: MTCC 424, 24 h
Candida albicans = test: Antifungal activity against Candida albicans MTCC 227 after 48 hrs by serial dilution method; conditions: MTCC 227, 48 h
Aspergillus niger = test: Antifungal activity against Aspergillus niger MTCC 8189 after 120 hrs by serial dilution method; conditions: MTCC 8189, 120 h

SMILES: O=C(/C=C/c1c(OCc2cn(Cc3ccc(F)cc3)nn2)ccc2ccccc12)c1ccc([N+](=O)[O-])cc1
- MIC (Escherichia coli): 3.2 µM (≈ 1.63 µg/mL)
- MIC (Bacillus subtilis): 6.3 µM (≈ 3.2 µg/mL)
- MIC [1]: 3.2 µM (≈ 1.63 µg/mL)
- MIC (Pseudomonas aeruginosa): 6.3 µM (≈ 3.2 µg/mL)
- MIC (Candida albicans): 3.2 µM (≈ 1.63 µg/mL)
- MIC (Aspergillus niger): 3.2 µM (≈ 1.63 µg/mL)

SMILES: O=C(/C=C/c1c(OCc2cn(-c3ccc(F)cc3)nn2)ccc2ccccc12)c1ccc([N+](=O)[O-])cc1
- MIC (Escherichia coli): 25.3 µM (≈ 12.5 µg/mL)
- MIC (Bacillus subtilis): 12.6 µM (≈ 6.23 µg/mL)
- MIC [1]: 25.3 µM (≈ 12.5 µg/mL)
- MIC (Pseudomonas aeruginosa): 25.3 µM (≈ 12.5 µg/mL)
- MIC (Candida albicans): 12.6 µM (≈ 6.23 µg/mL)
- MIC (Aspergillus niger): 12.6 µM (≈ 6.23 µg/mL)

SMILES: O=C(/C=C/c1c(OCc2cn(Cc3ccc(F)cc3)nn2)ccc2ccccc12)c1ccc(Br)cc1
- MIC (Escherichia coli): 5.8 µM (≈ 3.15 µg/mL)
- MIC (Bacillus subtilis): 5.8 µM (≈ 3.15 µg/mL)
- MIC [1]: 5.8 µM (≈ 3.15 µg/mL)
- MIC (Pseudomonas aeruginosa): 11.6 µM (≈ 6.29 µg/mL)
- MIC (Candida albicans): 5.8 µM (≈ 3.15 µg/mL)
- MIC (Aspergillus niger): 5.8 µM (≈ 3.15 µg/mL)

SMILES: COc1ccc(C(=O)/C=C/c2c(OCc3cn(-c4ccc(F)cc4)nn3)ccc3ccccc23)cc1
- MIC (Escherichia coli): 13 µM (≈ 6.23 µg/mL)
- MIC (Bacillus subtilis): 26.1 µM (≈ 12.5 µg/mL)
- MIC [1]: 52.2 µM (≈ 25 µg/mL)
- MIC (Pseudomonas aeruginosa): 26.1 µM (≈ 12.5 µg/mL)
- MIC (Candida albicans): 13 µM (≈ 6.23 µg/mL)
- MIC (Aspergillus niger): 52.2 µM (≈ 25 µg/mL)

SMILES: COc1ccc(C(=O)/C=C/c2c(OCc3cn(-c4cccc(C(F)(F)F)c4)nn3)ccc3ccccc23)cc1
- MIC (Escherichia coli): 11.8 µM (≈ 6.25 µg/mL)
- MIC (Bacillus subtilis): 23.6 µM (≈ 12.5 µg/mL)
- MIC [1]: 23.6 µM (≈ 12.5 µg/mL)
- MIC (Pseudomonas aeruginosa): 23.6 µM (≈ 12.5 µg/mL)
- MIC (Candida albicans): 11.8 µM (≈ 6.25 µg/mL)
- MIC (Aspergillus niger): 11.8 µM (≈ 6.25 µg/mL)

SMILES: O=C(/C=C/c1c(OCc2cn(Cc3ccccc3)nn2)ccc2ccccc12)c1ccc(Br)cc1
- MIC (Escherichia coli): 11.9 µM (≈ 6.24 µg/mL)
- MIC (Bacillus subtilis): 23.9 µM (≈ 12.5 µg/mL)
- MIC [1]: 11.9 µM (≈ 6.24 µg/mL)
- MIC (Pseudomonas aeruginosa): 11.9 µM (≈ 6.24 µg/mL)
- MIC (Candida albicans): 11.9 µM (≈ 6.24 µg/mL)
- MIC (Aspergillus niger): 11.9 µM (≈ 6.24 µg/mL)

SMILES: O=C(O)c1cn(C2CC2)c2cc(N3CCNCC3)c(F)cc2c1=O [CIPROFLOXACIN]
- MIC (Escherichia coli): 4.7 µM (≈ 1.56 µg/mL)
- MIC (Bacillus subtilis): 4.7 µM (≈ 1.56 µg/mL)
- MIC [1]: 4.7 µM (≈ 1.56 µg/mL)
- MIC (Pseudomonas aeruginosa): 4.7 µM (≈ 1.56 µg/mL)

SMILES: C#CCOc1ccc2ccccc2c1/C=C/C(=O)c1ccc(Br)cc1
- MIC (Escherichia coli): 63.7 µM (≈ 24.9 µg/mL)
- MIC (Bacillus subtilis): 63.7 µM (≈ 24.9 µg/mL)
- MIC [1]: 127 µM (≈ 49.8 µg/mL)
- MIC (Pseudomonas aeruginosa): 63.7 µM (≈ 24.9 µg/mL)
- MIC (Candida albicans): 63.7 µM (≈ 24.9 µg/mL)
- MIC (Aspergillus niger): 127 µM (≈ 49.8 µg/mL)

SMILES: C#CCOc1ccc2ccccc2c1/C=C/C(=O)c1ccc([N+](=O)[O-])cc1
- MIC (Escherichia coli): 70 µM (≈ 25 µg/mL)
- MIC (Bacillus subtilis): 140 µM (≈ 50 µg/mL)
- MIC [1]: 70 µM (≈ 25 µg/mL)
- MIC (Pseudomonas aeruginosa): 70 µM (≈ 25 µg/mL)
- MIC (Candida albicans): 70 µM (≈ 25 µg/mL)
- MIC (Aspergillus niger): 70 µM (≈ 25 µg/mL)

SMILES: O=C(/C=C/c1c(OCc2cn(Cc3ccccc3F)nn2)ccc2ccccc12)c1ccc(Br)cc1
- MIC (Escherichia coli): 11.6 µM (≈ 6.29 µg/mL)
- MIC (Bacillus subtilis): 11.6 µM (≈ 6.29 µg/mL)
- MIC [1]: 11.6 µM (≈ 6.29 µg/mL)
- MIC (Pseudomonas aeruginosa): 23.2 µM (≈ 12.6 µg/mL)
- MIC (Candida albicans): 23.2 µM (≈ 12.6 µg/mL)
- MIC (Aspergillus niger): 23.2 µM (≈ 12.6 µg/mL)

SMILES: C#CCOc1ccc2ccccc2c1/C=C/C(=O)c1ccc(OC)cc1
- MIC (Escherichia coli): 73.1 µM (≈ 25 µg/mL)
- MIC (Bacillus subtilis): 73.1 µM (≈ 25 µg/mL)
- MIC [1]: 146 µM (≈ 50.1 µg/mL)
- MIC (Pseudomonas aeruginosa): 73.1 µM (≈ 25 µg/mL)
- MIC (Candida albicans): 73.1 µM (≈ 25 µg/mL)
- MIC (Aspergillus niger): 73.1 µM (≈ 25 µg/mL)

SMILES: O=C(/C=C/c1c(OCc2cn(-c3ccc(F)cc3)nn2)ccc2ccccc12)c1ccc(Br)cc1
- MIC (Escherichia coli): 23.7 µM (≈ 12.5 µg/mL)
- MIC (Bacillus subtilis): 47.4 µM (≈ 25 µg/mL)
- MIC [1]: 47.4 µM (≈ 25 µg/mL)
- MIC (Pseudomonas aeruginosa): 47.4 µM (≈ 25 µg/mL)
- MIC (Candida albicans): 47.4 µM (≈ 25 µg/mL)
- MIC (Aspergillus niger): 23.7 µM (≈ 12.5 µg/mL)

SMILES: COc1ccc(C(=O)/C=C/c2c(OCc3cn(Cc4cccc(F)c4)nn3)ccc3ccccc23)cc1
- MIC (Escherichia coli): 12.6 µM (≈ 6.22 µg/mL)
- MIC (Bacillus subtilis): 25.3 µM (≈ 12.5 µg/mL)
- MIC [1]: 25.3 µM (≈ 12.5 µg/mL)
- MIC (Pseudomonas aeruginosa): 25.3 µM (≈ 12.5 µg/mL)
- MIC (Candida albicans): 12.6 µM (≈ 6.22 µg/mL)
- MIC (Aspergillus niger): 12.6 µM (≈ 6.22 µg/mL)

SMILES: O=C(/C=C/c1c(OCc2cn(Cc3ccccc3F)nn2)ccc2ccccc12)c1ccc([N+](=O)[O-])cc1
- MIC (Escherichia coli): 6.3 µM (≈ 3.2 µg/mL)
- MIC (Bacillus subtilis): 6.3 µM (≈ 3.2 µg/mL)
- MIC [1]: 6.3 µM (≈ 3.2 µg/mL)
- MIC (Pseudomonas aeruginosa): 24.8 µM (≈ 12.6 µg/mL)
- MIC (Candida albicans): 6.3 µM (≈ 3.2 µg/mL)
- MIC (Aspergillus niger): 6.3 µM (≈ 3.2 µg/mL)

SMILES: OC(Cn1cncn1)(Cn1cncn1)c1ccc(F)cc1F [FLUCONAZOLE]
- MIC (Candida albicans): 10.2 µM (≈ 3.12 µg/mL)
- MIC (Aspergillus niger): 5.1 µM (≈ 1.56 µg/mL)

SMILES: COc1ccc(C(=O)/C=C/c2c(OCc3cn(Cc4ccccc4F)nn3)ccc3ccccc23)cc1
- MIC (Escherichia coli): 6.3 µM (≈ 3.11 µg/mL)
- MIC (Bacillus subtilis): 25.3 µM (≈ 12.5 µg/mL)
- MIC [1]: 25.3 µM (≈ 12.5 µg/mL)
- MIC (Pseudomonas aeruginosa): 12.6 µM (≈ 6.22 µg/mL)
- MIC (Candida albicans): 6.3 µM (≈ 3.11 µg/mL)
- MIC (Aspergillus niger): 25.3 µM (≈ 12.5 µg/mL)

SMILES: O=C(/C=C/c1c(OCc2cn(Cc3ccccc3)nn2)ccc2ccccc12)c1ccc([N+](=O)[O-])cc1
- MIC (Escherichia coli): 12.8 µM (≈ 6.28 µg/mL)
- MIC (Bacillus subtilis): 6.3 µM (≈ 3.09 µg/mL)
- MIC [1]: 6.3 µM (≈ 3.09 µg/mL)
- MIC (Pseudomonas aeruginosa): 12.8 µM (≈ 6.28 µg/mL)
- MIC (Candida albicans): 12.8 µM (≈ 6.28 µg/mL)
- MIC (Aspergillus niger): 6.3 µM (≈ 3.09 µg/mL)

SMILES: O=C(/C=C/c1c(OCc2cn(-c3cccc(C(F)(F)F)c3)nn2)ccc2ccccc12)c1ccc([N+](=O)[O-])cc1
- MIC (Escherichia coli): 23 µM (≈ 12.5 µg/mL)
- MIC (Bacillus subtilis): 45.9 µM (≈ 25 µg/mL)
- MIC [1]: 23 µM (≈ 12.5 µg/mL)
- MIC (Pseudomonas aeruginosa): 23 µM (≈ 12.5 µg/mL)
- MIC (Candida albicans): 11.5 µM (≈ 6.26 µg/mL)
- MIC (Aspergillus niger): 45.9 µM (≈ 25 µg/mL)

SMILES: COc1ccc(C(=O)/C=C/c2c(OCc3cn(Cc4ccc(F)cc4)nn3)ccc3ccccc23)cc1
- MIC (Escherichia coli): 3.2 µM (≈ 1.58 µg/mL)
- MIC (Bacillus subtilis): 25.3 µM (≈ 12.5 µg/mL)
- MIC [1]: 25.3 µM (≈ 12.5 µg/mL)
- MIC (Pseudomonas aeruginosa): 25.3 µM (≈ 12.5 µg/mL)
- MIC (Candida albicans): 6.3 µM (≈ 3.11 µg/mL)
- MIC (Aspergillus niger): 12.6 µM (≈ 6.22 µg/mL)

SMILES: COc1ccc(C(=O)/C=C/c2c(OCc3cn(Cc4ccccc4)nn3)ccc3ccccc23)cc1
- MIC (Escherichia coli): 26.3 µM (≈ 12.5 µg/mL)
- MIC (Bacillus subtilis): 26.3 µM (≈ 12.5 µg/mL)
- MIC [1]: 52.6 µM (≈ 25 µg/mL)
- MIC (Pseudomonas aeruginosa): 26.3 µM (≈ 12.5 µg/mL)
- MIC (Candida albicans): 52.6 µM (≈ 25 µg/mL)
- MIC (Aspergillus niger): 52.6 µM (≈ 25 µg/mL)

SMILES: O=C(/C=C/c1c(OCc2cn(Cc3cccc(F)c3)nn2)ccc2ccccc12)c1ccc(Br)cc1
- MIC (Escherichia coli): 11.6 µM (≈ 6.29 µg/mL)
- MIC (Bacillus subtilis): 11.6 µM (≈ 6.29 µg/mL)
- MIC [1]: 23.2 µM (≈ 12.6 µg/mL)
- MIC (Pseudomonas aeruginosa): 23.2 µM (≈ 12.6 µg/mL)
- MIC (Candida albicans): 23.2 µM (≈ 12.6 µg/mL)
- MIC (Aspergillus niger): 23.2 µM (≈ 12.6 µg/mL)

SMILES: O=C(/C=C/c1c(OCc2cn(Cc3cccc(F)c3)nn2)ccc2ccccc12)c1ccc([N+](=O)[O-])cc1
- MIC (Escherichia coli): 6.3 µM (≈ 3.2 µg/mL)
- MIC (Bacillus subtilis): 12.6 µM (≈ 6.41 µg/mL)
- MIC [1]: 6.3 µM (≈ 3.2 µg/mL)
- MIC (Pseudomonas aeruginosa): 6.3 µM (≈ 3.2 µg/mL)
- MIC (Candida albicans): 6.3 µM (≈ 3.2 µg/mL)
- MIC (Aspergillus niger): 6.3 µM (≈ 3.2 µg/mL)

SMILES: O=C(/C=C/c1c(OCc2cn(-c3cccc(C(F)(F)F)c3)nn2)ccc2ccccc12)c1ccc(Br)cc1
- MIC (Escherichia coli): 10.8 µM (≈ 6.25 µg/mL)
- MIC (Bacillus subtilis): 21.7 µM (≈ 12.6 µg/mL)
- MIC [1]: 21.7 µM (≈ 12.6 µg/mL)
- MIC (Pseudomonas aeruginosa): 10.8 µM (≈ 6.25 µg/mL)
- MIC (Candida albicans): 21.7 µM (≈ 12.6 µg/mL)
- MIC (Aspergillus niger): 10.8 µM (≈ 6.25 µg/mL)
